Data as given in PubChem BioAssay (NCI).
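How tested: cells in 96-well plates exposed to compound for 48 hours at five concentrations. GI50 = concentration required for 50% inhibition of growth. At the TGI there is no net growth.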

Columns and labels:
Assay in all cases: inhibition of tumour cell growth, NCI panel, 48 h
[1] = system: COLO 205 colon
[2] = system: HCT-116 colon
[3] = system: HL-60(TB) leukemia
[4] = system: MDA-MB-435
[5] = system: OVCAR-8 ovarian
[6] = system: PC-3 prostate
[7] = system: SK-OV-3 ovarian
[8] = system: U251 CNS
[9] = system: UACC-62 melanoma
[10] = system: RPMI-8226 leukemia

Row | Structure (SMILES) | GI50 [1] [µM] | TGI [1] [µM] | GI50 [2] [µM] | TGI [2] [µM] | GI50 [3] [µM] | TGI [3] [µM] | GI50 [4] [µM] | TGI [4] [µM] | GI50 [5] [µM] | TGI [5] [µM] | GI50 [6] [µM] | TGI [6] [µM] | GI50 [7] [µM] | TGI [7] [µM] | GI50 [8] [µM] | TGI [8] [µM] | GI50 [9] [µM] | TGI [9] [µM] | TGI [10] [µM] | GI50 [10] [µM]
1 | C[C@@H]1CN(Cc2ccc(/C=C/c3n[nH]c4ccc5nc(-c6cn[nH]c6C(F)(F)F)c6c(c5c34)CCCC6)cc2)C[C@H](C)O1 | 3.21 | 12 | 1.37 | 11.3 | 6.32 | 28.5 | 6.81 | 21.2 | 4.76 | 23.1 | 3.93 | 18.8 | 3.64 | 17.3 | 5.45 | 19.5 | 5.73 | 19.3 |  | 
2 | O=C(CCCn1ccnc1[N+](=O)[O-])NCCn1cnc([N+](=O)[O-])c1 |  | > 100 |  | > 100 |  | > 100 |  | > 100 |  | > 100 |  | > 100 |  | > 100 |  | > 100 |  | > 100 | > 100 | 
3 | COc1cc2c(cc1OCCCCC(=O)Nc1ccc(-c3nc4ccccc4s3)cc1)N=C[C@@H]1CCCN1C2=O | 1.69 | 3.07 | 1.86 | 5.78 | 1.77 | 6.31 | 1.76 | 3.45 | 1.57 | 4.5 | 2.04 | 5.93 | 4.48 | 14.5 | 1.9 | 6.63 | 1.73 | 3.39 | 3.96 | 1.45
4 | N#Cc1cc2cc3c4c(c2oc1=O)CCCN4CCC3 |  | > 100 |  | > 100 |  | > 100 |  | > 100 |  | > 100 |  | > 100 |  | > 100 |  | > 100 |  | > 100 | > 100 | 
5 | CC(=O)OCCC/C(=C\c1ccc2ccccc2c1)[N+](=O)[O-] | 1.57 | 3.43 | 1.61 | 3.3 | > 100 | > 100 | 1.53 | 3.77 | 2.06 | 5.09 | 1.93 | 4.24 | 5.26 | 18.5 |  |  | 1.47 | 2.98 | 3.72 | 1.55
6 | COc1ccc2nc(-c3ccccc3)cc(Nc3ccc(/C(C)=N/O)cc3)c2c1 | 4.91 | > 100 | 1.52 | 2.85 | 2.88 | > 100 | 3.4 |  | 3.02 | > 27.5 | 6.36 | > 64.8 | 2.15 | 5.22 | 6.7 | > 67.1 | 2.1 | 4.65 | 7.06 | 2.16
7 | CC(C)(C)c1ccc(C(=O)N/N=C/c2ccc(O)cc2O)cc1 | 0.377 | 6.76 | 0.281 | 11.5 | 0.411 | 8.27 | 0.806 | 21.6 | 0.54 | > 100 | 0.706 | 21.8 | 0.589 | 14.7 | 0.483 | 14.9 | 0.363 | 3.2 | 20.9 | 0.784
8 | c1ccc(-c2n(Cc3ccc4ccccc4n3)c3ccccc3[n+]2Cc2ccc3ccccc3n2)cc1 | 0.181 | 0.415 | 0.247 | 1.19 | 0.151 | 0.62 | 0.337 | 1.22 | 0.341 | 1.46 | 0.23 | 1.35 | 0.282 | 1.18 | 0.243 | 1.19 | 0.306 | 1.24 | 0.845 | 0.0936
9 | Cc1ccc(C(=O)Nc2ccc(CN3CCN(C)CC3)c(C(F)(F)F)c2)cc1C#Cc1cncc2ncccc12 | 0.221 | 5.56 | 0.274 | 3.87 | 0.282 | 1.61 | 0.286 | 1.56 | 0.446 | 4.96 | 3.15 | 21.4 | 0.553 | 6.63 | 0.52 | 1.84 | 0.102 | 1.26 | 7.68 | 0.584
10 | COc1ccc(/C=C/c2nc(N3CCOCC3)c3cc(F)c(F)cc3n2)cc1OC | 3.47 | 20.7 | 3.53 | > 100 | 4 | > 100 | 3.18 | > 100 | 4.57 | > 100 | 2.66 | 33.9 | 11 | > 100 | 5.9 | > 100 | 3.55 | > 100 | > 100 | 2.7
11 | COC(=O)c1[nH]nc(-c2ccccc2)c1N1CCCCC1 | > 100 | > 100 |  |  | > 100 | > 100 | 64.7 | > 100 | 44.2 | > 100 | 38.9 | > 100 | 36.4 | > 100 | 26.6 | 78.8 | 17.3 | 49.2 | > 100 | 38
12 | BrP(NC1CCCCCC1)(c1ccccc1)(c1ccccc1)c1ccccc1 |  | 5.4 |  | > 100 |  | 13.8 |  | 7.63 |  | 10.7 |  | 5.53 |  |  |  | 13.4 |  | 15.9 | 5.41 | 
13 | COC(=O)C1CC2(c3ccc(C)cc3)C(c3ccc(C)cc3)=C(c3ccc(C)cc3)C1(c1ccc(C)cc1)S2=O (stereo unspecified) | > 100 | > 100 | 73.2 | > 100 |  |  | > 100 | > 100 | 37.9 | > 100 | > 100 | > 100 | > 100 | > 100 | 65.1 | > 100 | > 100 | > 100 | > 100 | > 100
14 | CC(=O)OC1CCC2(C)C(CCC3C2CCC2(C)C(C4=CC(=O)OC4)CCC32)C1 (stereo unspecified) | 12.8 | > 100 | 7.66 | > 100 | 7.9 | 30.7 | 4.2 | 33.5 | 4.2 | 36.7 | 5.07 | 25.7 | 19.9 | 49 |  |  | 1.01 | 2.74 | 3.03 | 0.928
15 | COc1cc(/C=C/C(=O)c2c(C)n([O-])c3cc(C)c(C)cc3[n+]2=O)cc(OC)c1OC | 20.7 | 67.4 | 8.08 | 38.3 | 12.1 | 61.7 | 20.4 | > 100 | 23.6 | 71.8 | 14.2 | 38.5 | 32.4 | 91.9 | 12 | 25.8 | 15.5 | 37.9 |  | 
16 | CCN(CC)c1ccc(/C=C/C(=O)c2cccc(NS(C)(=O)=O)c2)cc1 | 5.28 | > 100 | 3.99 | > 100 | 20 | > 100 | 3.29 | > 100 | > 100 | > 100 | 6.35 | > 100 | 5.27 | > 100 | 10.9 | > 100 |  |  | 20.8 | 2.34
17 | Cc1cc[c-]cc1.Fc1c[c-]c(-c2ccccn2)c(F)c1.N#CCC[PH+](CCC#N)c1ccccc1.[Pt+2] |  |  | 2.25 | 5.91 | 2.37 | 18.1 | 2.47 | 6.75 | 4 | > 100 | 3.01 | 20.7 | 8.37 | > 100 | 3.61 | 15.4 | 1.79 | 4.43 | 31.2 | 3.3
18 | N/C(=N\OC(=O)NC(Cl)=C(Cl)Cl)c1cc(C(F)(F)F)cc(C(F)(F)F)c1 |  | 33.4 |  | 35.5 |  | 30 |  | 48.5 |  | 40.6 |  | 38.9 |  | 84.4 |  | 31.3 |  |  | 34.8 | 
19 | O=C1C=C(N2CC2)c2ccccc2C1=O | 2.01 | 3.49 | 1.47 | 2.9 | 2.68 | 6.54 | 0.778 | 2.23 | 1.46 | 2.86 |  |  | 1.92 | 3.41 | 1.55 | 3.01 | 1.79 | 3.25 | 5.13 | 1.81
20 | COc1ccc(N2CCN(CC(=O)N3CCN(c4nnc(-c5ccccc5)c(-c5ccccc5)n4)CC3)CC2)cc1 | 3.25 | 13.7 | 3.96 | 38.6 | 6.03 | > 43.2 | 5.48 | > 100 | 35.8 | > 100 | 5.5 | > 100 | > 27.9 | > 100 | 6.43 | > 100 |  |  | 31.1 | 3.98
21 | COc1cc(C/C=C/c2ccccc2)c(OC)cc1O |  | 45.5 |  | 31.1 |  | 59.9 |  | 36.9 |  | 37 |  | 67.2 |  |  |  | 38.2 |  | 37.7 | 30.5 | 
